Results on 18 molecules are retold here after patent publication US10189839B2, “Tricyclic imidazole compounds as inhibitors of tryptophan hydroxylase” (ACTELION PHARMACEUTICALS LTD, priority 2013, dated 2019).

The target of this assay is T1, full length human TPH1 (Homo sapiens, UniProt P17752).
T1 construct: To generate the enzyme, full length human TPH1 is cloned into the plasmid pET20b(+); made in house; host or cells: E. coli
T1 sequence (P17752 1-444): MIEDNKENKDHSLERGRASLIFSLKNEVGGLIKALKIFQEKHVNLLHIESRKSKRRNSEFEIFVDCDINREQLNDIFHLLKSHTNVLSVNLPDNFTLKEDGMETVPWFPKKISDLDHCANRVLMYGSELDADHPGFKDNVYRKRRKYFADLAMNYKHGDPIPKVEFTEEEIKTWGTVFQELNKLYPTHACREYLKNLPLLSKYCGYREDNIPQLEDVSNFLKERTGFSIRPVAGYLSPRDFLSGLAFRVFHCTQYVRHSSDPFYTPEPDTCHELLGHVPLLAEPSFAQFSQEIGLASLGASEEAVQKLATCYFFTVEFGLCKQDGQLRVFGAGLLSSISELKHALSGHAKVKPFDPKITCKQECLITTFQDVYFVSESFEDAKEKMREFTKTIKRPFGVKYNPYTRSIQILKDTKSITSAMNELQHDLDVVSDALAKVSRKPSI
In words: Biochemical in vitro assay using fluorescence readout (TPH1 enzyme activity). The conditions noted are these: Table 1, mean where determined several times. An outline of the steps:
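IC50 (mean of repeats) derived from 5-hydroxy-L-tryptophan fluorescence at 540 nm (300 nm excitation) relative to vehicle, after perchloric acid stop. Reaction: 60 min, 15° C., pH 7.6 Tris-HCl, 40 μM L-tryptophan, 100 μM 6-methyltetrahydropterine, DTT, catalase, with 40-80 nM purified full-length human TPH1 from E. coli.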
One may read the IC50 as the point on the concentration scale where inhibition reaches its midpoint. The low end stands for inhibition by little substance, the high end for a need for much substance. Consider `CCc1nc(NS(C)(=O)=O)ccc1OCC(=O)N1CCc2nc3n(c2C1c1scnc1C)CCCC3` (stereo not drawn) [Example 1.13.1, N-(6-ethyl-5-(2-(1-(4-methylthiazol-5-yl)-3,4,6,7,8,9-hexahydroimidazo[1,2-a:5,4-c′]dipyridin-2(1H)-yl)-2-oxoethoxy)pyridin-2-yl)methanesulfonamide207], for which 0.044 µM corresponded to half-maximal inhibition (IC50). The molecule `CCc1nc(N2CCCS2(=O)=O)ccc1OCC(=O)N1CCc2nc3n(c2C1c1scnc1C)CCCC3` (stereo not drawn) [Example 1.13.2, 2-((6-(1,1-dioxidoisothiazoli132din-2-yl)-2-ethylpyridin-3-yl)oxy)-1-(1-(4-methylthiazol-5-yl)-3,4,6,7,8,9-hexahydroimidazo[1,2-a:5,4-c′]dipyridin-2(1H)-yl)ethanone] came in with an IC50 of 0.015 µM.

As for `CCc1nc(NS(C)(=O)=O)ccc1OCC(=O)N1CCc2nc3n(c2C1c1sccc1F)CCCC3` (stereo not drawn) [Example 1.14.1, N-(6-ethyl-5-(2-(1-(3-fluorothiophen-2-yl)-3,4,6,7,8,9-hexahydroimidazo[1,2-a:5,4-c′]dipyridin-2(1H)-yl)-2-oxoethoxy)pyridin-2-yl)methanesulfonamide], the 50% inhibitory concentration (IC50) was 0.016 µM. On to `CCc1nc(C(=O)NC2CC2)ccc1OCC(=O)N1CCc2nc3n(c2C1c1sccc1F)CCCC3` (stereo not drawn) [Example 1.14.2, N-cyclopropyl-6-ethyl-5-(2-(1-(3-fluorothiophen-2-yl)-3,4,6,7,8,9-hexahydroimidazo[1,2-a:5,4-c′]dipyridin-2(1H)-yl)-2-oxoethoxy)picolinamide], for which 0.012 µM corresponded to half-maximal inhibition (IC50). The value for `CCc1nc(NS(C)(=O)=O)ccc1OCC(=O)N1CCc2nc3n(c2C1c1cnc(C)s1)CCCC3` (stereo not drawn) [Example 1.15.1, N-(6-ethyl-5-(2-(1-(2-methylthiazol-5-yl)-3,4,6,7,8,9-hexahydroimidazo[1,2-a:5,4-c′]dipyridin-2(1H)-yl)-2-oxoethoxy)pyridin-2-yl)methanesulfonamide] was 0.036 µM; that for `CCc1nc(N2CCCS2(=O)=O)ccc1OCC(=O)N1CCc2nc3n(c2C1c1cnc(C)s1)CCCC3` (stereo not drawn) [Example 1.15.2, 2-((6-(1,1-dioxidoisothiazolidin-2-yl)-2-ethylpyridin-3-yl)oxy)-1-(1-(2-methylthiazol-5-yl)-3,4,6,7,8,9-hexahydroimidazo[1,2-a:5,4-c′]dipyridin-2(1H)-yl)ethanone] was 0.027 µM. Turning to `CCc1nc(NS(C)(=O)=O)ccc1OCC(=O)N1CCc2nc3n(c2C1c1cnc(-c2ccccc2)s1)CCCC3` (stereo not drawn) [Example 1.16.1, N-(6-ethyl-5-(2-oxo-2-(1-(2-phenylthiazol-5-yl)-3,4,6,7,8,9-hexahydroimidazo[1,2-a:5,4-c′]dipyridin-2(1H)-yl)ethoxy)pyridin-2-yl)methanesulfonamide], the IC50 is 0.225 µM.

In the case of `CCc1nc(NS(C)(=O)=O)ccc1OCC(=O)N1CCc2nc3n(c2C1c1nc(-c2ccccc2)no1)CCCC3` (stereo not drawn) [Example 1.17.1, N-(6-ethyl-5-(2-oxo-2-(1-(3-phenyl-1,2,4-oxadiazol-5-yl)-3,4,6,7,8,9-hexahydroimidazo[1,2-a:5,4-c′]dipyridin-2(1H)-yl)ethoxy)pyridin-2-yl)methanesulfonamide], the IC50 was 0.079 µM.

The molecule `Cc1nc(C(F)(F)F)sc1C1c2c(nc3n2CCCC3)CCN1C(=O)COc1ccc(NS(C)(=O)=O)nc1Cl` (stereo not drawn) [Example 1.18.1, N-(6-chloro-5-(2-(1-(4-methyl-2-(trifluoromethyl)thiazol-5-yl)-3,4,6,7,8,9-hexahydroimidazo[1,2-a:5,4-c′]dipyridin-2(1H)-yl)-2-oxoethoxy)pyridin-2-yl)methanesulfonamide] returned an IC50 of 0.126 µM. Molecule `Cc1cc(F)cnc1C1c2c(nc3n2CCCC3)CCN1C(=O)COc1ccc(NS(C)(=O)=O)nc1Cl` (stereo not drawn) [Example 1.19.1, N-(6-chloro-5-(2-(1-(5-fluoro-3-methylpyridin-2-yl)-3,4,6,7,8,9-hexahydroimidazo[1,2-a:5,4-c′]dipyridin-2(1H)-yl)-2-oxoethoxy)pyridin-2-yl)methanesulfonamide] registered an IC50 of 0.113 µM. The result for `O=C(NC1CC1)c1ccc(OCC(=O)N2CCc3nc4n(c3C2c2ccc(OC(F)(F)F)cc2F)CCCC4)c(Cl)n1` (stereo not drawn) [Example 1.20.1, 6-chloro-N-cyclopropyl-5-(2-(1-(2-fluoro-4-(trifluoromethoxy)phenyl)-3,4,6,7,8,9-hexahydroimidazo[1,2-a:5,4-c′]dipyridin-2(1H)-yl)-2-oxoethoxy)picolinamide] reads 0.026 µM; that for `CS(=O)(=O)Nc1ccc(OCC(=O)N2CCc3nc4n(c3C2c2ccc(OC(F)(F)F)cc2F)CCCC4)c(Cl)n1` (stereo not drawn) [Example 1.20.2, N-(6-chloro-5-(2-(1-(2-fluoro-4-(trifluoromethoxy)phenyl)-3,4,6,7,8,9-hexahydroimidazo[1,2-a:5,4-c′]dipyridin-2(1H)-yl)-2-oxoethoxy)pyridin-2-yl)methanesulfonamide], 0.037 µM. The value for `COc1ccc(C2c3c(nc4n3CCCC4)CCN2C(=O)COc2ccc(C(=O)NC3CC3)nc2Cl)c(F)c1` (stereo not drawn) [Example 1.21.1, 6-chloro-N-cyclopropyl-5-(2-(1-(2-fluoro-4-methoxyphenyl)-3,4,6,7,8,9-hexahydroimidazo[1,2-a:5,4-c′]dipyridin-2(1H)-yl)-2-oxoethoxy)picolinamide] was 0.018 µM; that for `COc1ccc(C2c3c(nc4n3CCCC4)CCN2C(=O)COc2ccc(NS(C)(=O)=O)nc2Cl)c(F)c1` (stereo not drawn) [Example 1.21.2, N-(6-chloro-5-(2-(1-(2-fluoro-4-methoxyphenyl)-3,4,6,7,8,9-hexahydroimidazo[1,2-a:5,4-c′]dipyridin-2(1H)-yl)-2-oxoethoxy)pyridin-2-yl)methanesulfonamide] was 0.078 µM; that for `CS(=O)(=O)Nc1ccc(OCC(=O)N2CCc3nc4n(c3C2c2ccc(C#N)cc2F)CCCC4)c(Cl)n1` (stereo not drawn) [Example 1.22.1, N-(6-chloro-5-(2-(1-(4-cyano-2-fluorophenyl)-3,4,6,7,8,9-hexahydroimidazo[1,2-a:5,4-c′]dipyridin-2(1H)-yl)-2-oxoethoxy)pyridin-2-yl)methanesulfonamide] was 0.048 µM. The value for `N#Cc1ccc(C2c3c(nc4n3CCCC4)CCN2C(=O)COc2ccc(C(=O)NC3CC3)nc2Cl)c(F)c1` (stereo not drawn) [Example 1.22.2, 6-chloro-5-(2-(1-(4-cyano-2-fluorophenyl)-3,4,6,7,8,9-hexahydroimidazo[1,2-a:5,4-c′]dipyridin-2(1H)-yl)-2-oxoethoxy)-N-cyclopropylpicolinamide] was 0.028 µM; that for `COC(=O)c1ccc(C2c3c(nc4n3CCCC4)CCN2C(=O)COc2ccc(NS(C)(=O)=O)nc2Cl)c(F)c1` (stereo not drawn) [Example 1.23.1, methyl-4-(2-(2-((2-chloro-6-(methylsulfonamido)pyridin-3-yl)oxy)acetyl)-1,2,3,4,6,7,8,9-octahydroimidazo[1,2-a:5,4-c′]dipyridin-1-yl)-3-fluorobenzoate] was 0.021 µM. On to `COC(=O)c1ccc([C@@H]2c3c(nc4n3CCCC4)CCN2C(=O)COc2ccc(C(=O)NC3CC3)nc2Cl)c(F)c1` [Example 1.23.2, methyl (R)-4-(2-(2-((2-chloro-6-(cyclopropylcarbamoyl)pyridin-3-yl)oxy)acetyl)-1,2,3,4,6,7,8,9-octahydroimidazo[1,2-a:5,4-c′]dipyridin-1-yl)-3-fluorobenzoate], for which inhibition was half-maximal at 0.056 µM (IC50).
